The term MIC denotes the lowest concentration that inhibits growth of the organism. One may read the EC50 as the concentration that produces a half-maximal response. Higher therefore signals a less potent agent. One may read the viability as a per cent measure of how many cells are alive, often set against a control. A lower viability goes with more harm to the cells. A word on the IC50: it is the concentration that gives 50% inhibition. A high value points to weaker potency. The term CC50 denotes the concentration that lowers cell viability or growth by half. Lower therefore signals harm at low concentration.

Converted amounts (≈) assume the structure as drawn. “And” between values parts separate entries of the source, which are not always exact repeats. Equal values may be shown once. *1 amine or outer side, *2 acyl side, *3 side chain or, on linkers, in order; H or OH if unused. Where a SMILES comes first, the peptide text is derived from it. Bridges are numbered along the chain shown (N, C = ends). Roman numbers before positions name the chains, in order. [ ]: non-standard residue; d: D form. Actinocin(9to1) = Cc1c2oc3c(C)ccc(C(=O)[*:1])c3nc-2c(C(=O)[*:2])c(N)c1=O; NMeV = CN[C@H](C(=O)O)C(C)C; Sar = CNCC(=O)O

Consider 8 compounds from patent publication EP2879647B1, “SKIN CARE” (University of Pretoria, priority 2012, dated 2014).

In series [1] the test system is Propionibacterium acnes (ATCC 11827). In words: Antibacterial bioassay, MIC by broth microdilution (INT colour change). As to conditions: Cutibacterium acnes, ATCC11827, 72 h, read-out: Antibacterial MIC. (In broth dilution the organism is exposed to a series of concentrations in liquid medium.)
Description: Briefly, the bacteria was cultured from a Kwik-Stick on nutrient agar and incubated at 37°C for 72 h under anaerobic conditions before the assay. The 72 h culture of the bacteria was dissolved in nutrient broth and the suspension was adjusted to 0.5 McFarland standard turbidity. […] In a sterile 96-well plate, 100 µl of samples from the stock solution consisting of the plant extract/ isolated compounds (2 mg/ml in 10% dimethyl sulphoxide (DMSO)) and the positive control tetracycline (0.2 mg/ml) was diluted with broth. […] The bacterial suspension (100 µl) was added to the wells. […] The plates were incubated at 37°C for 72 h in an anaerobic environment.
Series [2] in a line: In vitro cytotoxicity assay (XTT). As to conditions: human; for CC50: u937 cells. In general terms: Formazan colour is commonly taken as a measure of viable cells.
Description: (§1) The mouse melanocytes (B16-F10) cells were cultured in a complete Minimum Essential Eagle's Medium (MEM) whereas the human U937 cells were cultured in Roswell Park Memorial Institute (RPMI) containing 10% fetal bovine serum (FBS) and 1% gentamycin. B16-F10 (10^5 cells per well) and U937 (10^6 cells per well) were seeded into a 96-well plate. […] The plate was then incubated at 37°C in 5% CO2, and a humidified atmosphere after which the toxicity effects of the extracts was assayed using the XTT (sodium 3'-[1-(phenyl amino-carbonyl)-3,4-tetrazolium]-bis-[4-methoxy-6-nitrobenzene sulfonic acid hydrate) cytotoxicity assay. […] By referring to the control (medium with DMSO), the cell survival rate was assessed.
For the next series, the system named is CNS cancer cells (XF498). The note with it: Sung et al., 1999; cited from earlier work.
A short description of series [3]: In vitro cytotoxicity assay (XTT). As to conditions: mouse; for CC50: b16-f10 cells.
Description: as §1
In series [4] the test system is skin cancer cells (SL-MEL-2). As to conditions: Sung et al., 1999; cited from earlier work.
In series [5] the test system is colorectal cancer cells (HCT15). As to conditions: Sung et al., 1999; cited from earlier work.
A short description of series [6]: DPPH antioxidant (radical scavenging) assay. Type of series: biochemical. The note with it: for Antioxidant IC50 / IC50: DPPH; for Antioxidant IC50: 550 nm, samples 100 to 0.7 µg/ml; for IC50: value in brackets. On the procedure: Following the procedures as described by DuToit et al. (2001) for each sample, a dilution series (8 dilutions) was prepared in a 96 well plate by adding distilled water as a dilution medium. […] Each concentration was tested in triplicates. Vitamin C was used as a positive control. The radical scavenging capacities of the samples were determined using a BIOTEK plate reader to measure the disappearance of DPPH at 550 nm. The radical scavenging activity was measured in terms of the amount of antioxidants necessary to decrease the initial DPPH absorbance by 50% (IC50). The IC50 value of each sample was determined graphically by plotting the absorbance of DPPH as a function of the sample concentration in μg/ml. The IC50 is the amount of antioxidant necessary to decrease the initial DPPH absorbance by 50%. The results were calculated using the following equation: AA% = {Absblank(Abssample-Abscontrol)/Absblank} × 100 [formula] The mg vitamin C equivalents/g dry weight of potent samples was calculated as follows: […]) = (IC50(vitc)/IC50(sample)) × 1000. [formula]

The conditions of series [7]: constituent of Viburnum jucundum (Rios et al., 2001); cited from earlier work.
A further series concerns U937 human macrophage. In words: In vitro cytotoxicity assay (XTT). The note with it: XTT.
A further series relates to P. acnes. Put plainly: Transmission electron microscopy (TEM) of treated bacteria. As to conditions: 50 µg/ml, 72 h.
The next series relates to MAC tumour cells. As to conditions: Woldemariam et al. (1992); cited from earlier work.
A further series has as its system IL-8. In words: Cytokine production (ELISA) in U937 cells co-cultured with heat-killed P. acnes. Type of series: cell-based, human. The note with it: U937 cells infected with P. acnes (Fig 3b). In general terms: ELISA stands for enzyme-linked immunosorbent assay.
In another series the test system is TNF a. Described as above. Type of series: cell-based, human. The note with it: 100 and 50 µg/ml, U937 cells infected with P. acnes (Fig 3b). The procedure:
The effect of plant extract on cytokine production (IL 8 and TNF a) was evaluated using enzyme immunoassay kits (ELIZA) using method as described previously (Tsai et al., 2010). Briefly, the log phase culture of P.acnes was harvested, washed three times with phosphate buffer saline (PBS), and incubated at 80°C for 30 min to kill the bacteria. The heat-killed bacteria were stored at 4°C until use. The human U937 cells were seeded at 10^6 cells per well in a 24-well plate and was stimulated with heat killed P. acnes (wet weight 100 µg/ml) alone and in combination with the different test samples. Pentoxifylline was used as a control. After 18 h incubation, the cell-free supernatants were collected and the concentrations of IL 8 and TNF a were analysed. Cytokine standards were serially diluted to facilitate the construction of calibration curves necessary for determining protein concentration of test samples.

Description for U937 human macrophage: as §1

For `CN(C)[C@@H]1C(O)=C(C(N)=O)C(=O)[C@@]2(O)C(O)=C3C(=O)c4c(O)cccc4[C@@](C)(O)[C@H]3C[C@@H]12` [tetracycline, reference compound], the minimum inhibitory concentration (MIC) in [1] is 3.1 µg/mL and 7 µM.

In series [2], `C/C(=C\CO)CCC[C@H](C)CCC[C@H](C)CCCC(C)C` [Compound C3, phytol] came in with an EC50 of over 100 µg/mL and a viability at 100 µg/ml of 100%. Also, the minimal inhibitory concentration (MIC) in series [1] is over 500 µg/mL. In addition, the “toxicity against CNS cancer cells (XF498)” value in the series with CNS cancer cells (XF498) is “mild toxicity”. Moreover, in [3], the half-maximal effective concentration (EC50) was over 100 µg/mL and the viability at 100 µg/ml is 100%. The “toxicity against skin cancer cells (SL-MEL-2)” value in series [4] is recorded as “mild toxicity”. Moreover, in [5], the “toxicity against colorectal cancer cells (HCT15)” value is given as “mild toxicity”. The “Antioxidant IC50” value in series [6] was over 100 µg/mL.

In the case of `CCCCCCCCCCCCCCCCCCCCCCCCCCCCCCO` [Compound C2, triacontanol], the EC50 in series [2] and in series [3] was over 100 µg/mL throughout. The viability at 100 µg/ml in series [2] and in series [3] was 100% throughout. For the same compound, the MIC in series [1] was over 500 µg/mL. The toxicity result in [7] is on record as “non toxic”. The “Antioxidant IC50” value in [6] is over 100 µg/mL.

With `O=C1O[C@H]([C@@H](O)CO)C(O)=C1O` [vitamin C, reference compound], in series [6], the “Antioxidant IC50” value was 1.98 µg/mL and it took 11.3 µM to reach half-maximal inhibition (IC50).

In turn, `COc1c(C)c(O)c(Cc2c(O)c(C)c(OC)c(C(=O)C(C)C)c2O)c(O)c1C(=O)C(C)C` [Compound C4, alpha kosin] displayed a CC50 in series [2] of under 3.12 µg/mL. Moreover, the “Cytotoxicity EC50 U937 human macrophage” value in the series with U937 human macrophage was under 3.12 µg/mL. For the same compound, the MIC in [1] was 1.9 µg/mL and 2.1 µM. Besides, in the series with P. acnes, the “cell injuries to P. acnes (TEM micrograph)” value was “significant damage to P. acnes”. The compound further had a half-maximal cytotoxic concentration (CC50) in series [3] of under 3.12 µg/mL. In the series with MAC tumour cells, the “cytotoxic effects against MAC tumour cells” value was “strong cytotoxic effects”. Moreover, in series [6] ((IC50 vit C / IC50 sample) x 1000), the “mg vitamin C equivalents/g dry weight” value is recorded as 392 mg vitamin C equivalents/g dry weight. Moreover, in series [6], the “Antioxidant IC50” value stood at 5.05 µg/mL and the IC50 was determined as 10.5 µM.

In the case of `CC(=O)OC/C=C(\C)CCC[C@H](C)CCC[C@H](C)CCCC(C)C` [Compound C1, phytol acetate], in series [1], the minimum inhibitory concentration (MIC) is over 500 µg/mL. Moreover, in [6], the “Antioxidant IC50” value was over 100 µg/mL.

Take `Cc1c2oc3c(C)ccc(C(=O)N[C@@H]4C(=O)N[C@H](C(C)C)C(=O)N5CCC[C@H]5C(=O)N(C)CC(=O)N(C)[C@@H](C(C)C)C(=O)O[C@@H]4C)c3nc-2c(C(=O)N[C@@H]2C(=O)N[C@H](C(C)C)C(=O)N3CCC[C@H]3C(=O)N(C)CC(=O)N(C)[C@@H](C(C)C)C(=O)O[C@@H]2C)c(N)c1=O` [actinomycin D, reference compound] (I: T[dV]P[Sar][NMeV] / II: T[dV]P[Sar][NMeV]; ester I:1-I:C, II:1-II:C; linker I:N-II:N via Actinocin(9to1)): the CC50 in series [2] and in series [3] was 0.0045 µg/mL (≈ 0.00358 µM) in each case.

In the case of `CC(=O)CCCCn1c(=O)c2c(ncn2C)n(C)c1=O` [pentoxifylline], the IL-8 concentration entry in the series with IL-8 was “no change”. Further, the “inhibition of TNF a” value in the series with TNF a was “Significant inhibition”.
